Test results: patent US12569502B2, “Use of bile acids and derivatives thereof in preparation of GPR39 agonist” (PEKING UNIVERSITY, priority 2019, dated 2026)
Where two headings read alike, the source gives them in different places.

Biological target: T1, GPR39 receptors on m39-20 cell lines (Mus musculus, UniProt Q5U431, T447P)
T1 construct: P2A-mCherry (C); expressed in transfected cells
T1 sequence (Q5U431 1-456 T447P): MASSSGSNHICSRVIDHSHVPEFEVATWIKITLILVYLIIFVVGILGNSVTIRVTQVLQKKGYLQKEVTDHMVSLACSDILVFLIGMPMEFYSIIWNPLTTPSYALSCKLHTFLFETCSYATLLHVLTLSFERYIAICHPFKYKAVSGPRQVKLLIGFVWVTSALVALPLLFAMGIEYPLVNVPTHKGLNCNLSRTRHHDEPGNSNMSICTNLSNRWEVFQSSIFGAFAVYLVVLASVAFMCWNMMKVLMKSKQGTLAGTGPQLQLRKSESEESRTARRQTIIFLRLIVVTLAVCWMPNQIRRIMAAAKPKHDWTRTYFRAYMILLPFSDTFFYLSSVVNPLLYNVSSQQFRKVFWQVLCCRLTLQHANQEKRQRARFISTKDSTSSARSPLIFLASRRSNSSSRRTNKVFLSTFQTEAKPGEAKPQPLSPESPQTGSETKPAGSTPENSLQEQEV
Experiment: FLIPR calcium imaging on m39-20 cell lines stably expressing murine-derived GPR39
Assay type: cell-based
Conditions: for Bile acid + 4 μM zinc ions Efficacy / Only bile acid Efficacy: activation efficacy; for intracellular calcium signals in m39-20 cell lines: FIG. 1; for change of activation efficacy after the addition of zinc ions: Table 1, FIG. 2
Source text: Intracellular calcium imaging is a routine technique to study cell functions, the basic principle of which is to detect the concentration of the calcium ion in tissues or cells using a calcium indicator, thereby reflecting certain reactions in the tissues or cells. In the present application, the intracellular calcium released from a cell line that stably or transiently expresses GPR39 is detected using Fluo8-AM, a calcium fluorescent indicator, so as to determine the activation of the GPR39 receptor by the bile acid and derivative thereof.
HEK293T cells (purchased from ATCC) were seeded in a 6-well plate (coming Co.) at an appropriate density (about 0.5-2×10^5/well). When the cell density reached above 30%, the plasmid PLVXK-mGPR39-P2A-mCherry was transfected with Lipofectamine 3000 (Invitrogen) at a concentration of 2 μg per well. The cells were passaged 24 hours after transfection, the puromycin (gibco) was added into the medium at a concentration of 2 μg/mL for antibiotic screening of cells. After 2-4 days of continuous screening, the cells screened for puromycin resistance were trypsinized and screened by flow cytometry for monoclones with red fluorescence. And these monoclones were seeded in a 96-well plate and cultured in a medium without puromycin for around 10 days. Cell colonies with red fluorescence were sorted under a fluorescence microscope, trypsinized and then passaged and expanded in a 6-well plate. Cell lines m39-20 stably expressing murine-derived GPR39 were obtained through the above methods.
Calcium dye Fluo8-AM (ATT bioquest Co.) was dissolved in DMSO solvent to formulate a stock solution of 1 μg/μL. […] After then, the calcium dye working solution was replaced with the 4K solution (50 μL per well), and acclimated for 5 min at room temperature for the subsequent calcium imaging experiment.
Bile acids and derivatives thereof as listed in Table 1 below were dissolved in dimethyl sulfoxide (DMSO, Sigma Co.) solvent to formulate a stock solution of 50 mM, which was stored at −20° C. During calcium imaging with FLIPR, the drug was diluted with the above 4K solution into a working concentration of 400 μM, and packaged into another 96-well plate. […] The instrument parameters were set so that 50 μL of the drug solution may be added into the culture wells within 2 s. The fluorescence recording result within the first 30 seconds was used as the baseline value. The FLIPR robot arm was programmed to automatically add bile acids and derivatives thereof into the cell sample culture wells at the 31st second. 1% of DMSO solvent was used as the blank control.
After that, the calcium dye working solution was replaced with a 4K solution containing 4 μM zinc ions (50 μL per well), followed by acclimation for 5 min at room temperature.

[1] = Bile acid + 4 μM zinc ions EC50, m39-20 cells, 4 μM zinc ions
[2] = m39-20 cells, no zinc ions, read-out: Only bile acid EC50
[3] = Only bile acid EC50, m39-20 cells, no zinc ions
[4] = m39-20 cells, no zinc ions, read-out: EC50 Only agonist

Row | EC50 (EC50 Agonist + 4 μM zinc ions, m39-20 cells, 4 μM zinc ions) [µM] | EC50 [4] [µM] | EC50 (read-out: EC50 Agonist + 4 μM zinc ions, m39-20 cells, 4 μM zinc ions) [µM] | SMILES | EC50 [1] [µM] | Bile acid + 4 μM zinc ions Efficacy (m39-20 cells, 4 μM zinc ions) [%] | Only bile acid Efficacy (m39-20 cells, no zinc ions) [%] | EC50 [2] [µM] | intracellular calcium signals in m39-20 cell lines | change of activation efficacy after the addition of zinc ions (m39-20 cells) | EC50 [3] [µM]
1 |  |  |  | C[C@H](CCC(=O)O)[C@H]1CC[C@H]2[C@@H]3[C@H](O)C[C@@H]4C[C@H](O)CC[C@]4(C)[C@H]3C[C@H](O)[C@]12C [CA, Cholic acid] | 49.2 ± 3.3 | 99.3 ± 2.1 | 0 | > 200 |  |  | 
2 |  |  |  | C[C@H](CCC(=O)O)[C@H]1CC[C@H]2[C@@H]3CC[C@@H]4C[C@H](OS(=O)(=O)O)CC[C@]4(C)[C@H]3C[C@H](O)[C@]12C [DCAS] | 37.8 ± 1 | 81.9 ± 2.2 | 0 | > 200 | varying extents of intracellular calcium signals | obviously improved | 
3 |  |  |  | C[C@H](CCC(=O)NCC(=O)O)[C@H]1CC[C@H]2[C@@H]3[C@H](O)C[C@@H]4C[C@H](O)CC[C@]4(C)[C@H]3C[C@H](O)[C@]12C [GCA] | > 100 | 20 ± 2.7 | 0 | > 200 | varying extents of intracellular calcium signals | obviously improved | 
4 |  |  |  | C[C@H](CCC(=O)NCC(=O)O)[C@H]1CC[C@H]2[C@@H]3[C@H](O)C[C@@H]4C[C@H](OS(=O)(=O)O)CC[C@]4(C)[C@H]3CC[C@]12C [GCDCAS] | > 100 | 58.6 ± 2 | 0 | > 200 | varying extents of intracellular calcium signals | obviously improved | 
5 |  |  |  | C[C@H](CCC(=O)NCC(=O)O)[C@H]1CC[C@H]2[C@@H]3[C@H](O)C[C@@H]4C[C@H](O)CC[C@]4(C)[C@H]3CC[C@]12C [GCDCA] | 80.6 ± 3.6 | 91.2 ± 4.4 | 16.5 ± 2.4 | > 200 | varying extents of intracellular calcium signals | obviously improved | 
6 |  |  |  | C[C@H](CCC(=O)NCC(=O)O)[C@H]1CC[C@H]2[C@@H]3CC[C@@H]4C[C@H](OS(=O)(=O)O)CC[C@]4(C)[C@H]3C[C@H](O)[C@]12C [GDCAS] | > 100 | 58.5 ± 4.8 | 0 | > 200 | varying extents of intracellular calcium signals | obviously improved | 
7 |  |  |  | C[C@H](CCC(=O)NCC(=O)O)[C@H]1CC[C@H]2[C@@H]3CC[C@@H]4C[C@H](O)CC[C@]4(C)[C@H]3C[C@H](O)[C@]12C [GDCA] | 46 ± 10.3 | 86.4 ± 6.3 | 7.7 ± 1.7 | > 200 | varying extents of intracellular calcium signals | obviously improved | 
8 |  |  |  | C[C@H](CCC(=O)NCC(=O)O)[C@H]1CC[C@H]2[C@@H]3CC[C@@H]4C[C@H](O)CC[C@]4(C)[C@H]3CC[C@]12C [GLCA] | 13.5 ± 3.4 | 74 ± 4.1 | 0 |  | varying extents of intracellular calcium signals | obviously improved | > 200
9 |  |  |  | C[C@H](CCC(=O)NCC(=O)O)[C@H]1CC[C@H]2[C@@H]3[C@@H](O)C[C@@H]4C[C@H](O)CC[C@]4(C)[C@H]3CC[C@]12C [GUDCA] | > 100 | 35.3 ± 6.8 | 0 | > 200 | varying extents of intracellular calcium signals | obviously improved | 
10 |  |  |  | C[C@H](CCC(=O)O)[C@H]1CC[C@H]2[C@@H]3CC[C@@H]4C[C@H](O)CC[C@]4(C)[C@H]3CC[C@]12C [LCA, Lithocholic acid] | > 100 | 1.3 ± 1.1 | 0 | > 200 |  |  | 
11 |  |  |  | C[C@H](CCC(=O)NCCS(=O)(=O)O)[C@H]1CC[C@H]2[C@@H]3[C@H](O)C[C@@H]4C[C@H](O)CC[C@]4(C)[C@H]3C[C@H](O)[C@]12C [TCA] | > 100 | 31.8 ± 3 | 0 |  | varying extents of intracellular calcium signals | obviously improved | > 200
12 |  |  |  | C[C@H](CCC(=O)NCCS(=O)(=O)O)[C@H]1CC[C@H]2[C@@H]3[C@H](O)C[C@@H]4C[C@H](OS(=O)(=O)O)CC[C@]4(C)[C@H]3CC[C@]12C [TCDCAS] | > 100 | 39.7 ± 3.3 | 0 | > 200 | varying extents of intracellular calcium signals | obviously improved | 
13 |  |  |  | C[C@H](CCC(=O)NCCS(=O)(=O)O)[C@H]1CC[C@H]2[C@@H]3CC[C@@H]4C[C@H](OS(=O)(=O)O)CC[C@]4(C)[C@H]3C[C@H](O)[C@]12C [TDCAS] | > 100 | 60.1 ± 5.5 | 0 | > 200 | varying extents of intracellular calcium signals | obviously improved | 
14 |  |  |  | C[C@H](CCC(=O)NCCS(=O)(=O)O)[C@H]1CC[C@H]2[C@@H]3CC[C@@H]4C[C@H](O)CC[C@]4(C)[C@H]3C[C@H](O)[C@]12C [TDCA] | 27.6 ± 7.1 | 99.3 ± 1.7 | 22.8 ± 3 | > 200 | varying extents of intracellular calcium signals | obviously improved | 
15 | 1.5 | 39 |  | CNc1nc(NCc2ccc(NS(C)(=O)=O)cc2Cl)cc(-c2ccccn2)n1 [TG-G 1008, reference compound] |  |  |  |  |  |  | 
16 |  |  |  | C[C@H](CCC(=O)NCCS(=O)(=O)O)[C@H]1CC[C@H]2[C@@H]3CC[C@@H]4C[C@H](O)CC[C@]4(C)[C@H]3CC[C@]12C [TLCA] | 8.1 ± 2.4 | 103.5 ± 1.1 | 47.8 ± 1.1 | 44 ± 10 | varying extents of intracellular calcium signals |  | 
17 |  | 42.9 | 3.5 | CCCCCCCCC=CCCCCCCCC(=O)OCC(CO)OC(=O)CCCCCCCC=CCCCCCCCC (stereo not drawn) [TM-N 1324, reference compound] |  |  |  |  |  |  | 
18 |  |  |  | C[C@H](CCC(=O)NCCS(=O)(=O)O)[C@H]1CC[C@H]2[C@@H]3[C@@H](O)C[C@@H]4C[C@H](OS(=O)(=O)O)CC[C@]4(C)[C@H]3CC[C@]12C [TUDCAS] | > 100 | 31.4 ± 3.2 | 0 | > 200 | varying extents of intracellular calcium signals | obviously improved | 
19 |  |  |  | C[C@H](CCC(=O)O)[C@H]1CC[C@H]2[C@@H]3[C@@H](O)C[C@@H]4C[C@H](O)CC[C@]4(C)[C@H]3CC[C@]12C [UDCA, Ursodeoxycholic acid] | > 100 | 58.5 ± 4 | 0 | > 200 |  |  | 
